Key:
[1] = tested on: cultured PGCLC; experiment: Immunofluorescence analysis of STRA8, SCP3, DDX4 in cultured PGCLC; type: cell-based, mouse; conditions: cultured PGCLC, c9; BMP4, 5, 7 combined with RA; BMS493 with BMP2; LDN193189 with RA and BMP2
Description: (§1) The PGC/PGCLC expansion medium was constituted of 10% KSR, 2.5% FBS, 0.1 mM NEAA, 1 mM sodium pyruvate, 2 mM L-glutamine, 0.1 mM 2-mercaptoethanol, 100 U/ml penicillin, 0.1 mg/ml […] streptomycin, […] forskolin, and 10 μM rolipram. The entire medium was changed every 2 days from c3. Cytokines/compounds for induction of female fate were provided from c3 to the end of culture. RA and BMP concentrations used were 100 nM and 300 ng/ml, respectively, unless otherwise specified. Brightfield and fluorescence images were captured using an IX73 inverted microscope (Olympus).
Immunofluorescence (IF) analysis was performed as described previously (Hayashi et al, 2012). The following primary antibodies were used: chicken anti-GFP (ab13970; Abeam), rabbit anti-DDX4 (ab13840; Abeam), mouse anti-DDX4 (ab27591; Abeam), rabbit anti-DAZL (ab34129; Abeam), goat anti-DAZL (sc-27333; Santa Cruz), rabbit anti-STRA8 (ab49602; Abeam), mouse anti-SYCP3 (ab97672; Abeam) and rabbit anti-TEX14 (ab41733; Abeam)IgG. The following secondary antibodies were used: Alexa Fluor 488-goat anti-mouse or chicken IgG; Alexa Fluor 568-goat anti-rabbit IgG and Alexa Fluor 633-goat anti-mouse, anti-chicken IgG; Alexa Fluor 488-donkey anti-mouse IgG; Alexa Fluor 568-donkey anti-rabbit IgG and Alexa Fluor 633-donkey anti-goat IgG. IF images were acquired using a confocal microscope [FV1000 (Olympus) or LSM780 (Zeiss)].

[2] = tested on: PGCLC; experiment: CsA or FK506 alone at various concentrations on PGCLC proliferation (fold difference d7/d1); type: cell-based, mouse; conditions: 10, 5, 1, 0 μM, in place of FR10
[3] = tested on: BV (+) d4 PGCLCs; experiment: Compound library screening for PGCLC proliferation (BV fluorescence by cell analyzer); type: cell-based, mouse; conditions: 10 μM; day 7 of culture
Description: d4 PGCLC was seeded by FACS on m220-5 feeders in 96-well plates and BV fluorescence was monitored by cell analyzer (Cellavista; SynenTec). Fluorescence photograph for BV was taken by Cellavista cell analyzer with the following settings: 10× objectives; exposure time: 140 μsec; gain: 4×; binning: 4×4; excitation: 500/24 nm; emission: 542/27 nm. BV fluorescence was detected using the following algorithm/attribute parameters: sensitivity: 10; region merging: 200; min. granule intensity: 50; well edge distance: 200; contrast: 1; size: 3,000; intensity: 255; roughness: 500; granularity: 100; granule intensity: 255; granule count: 10,000; longishness: 100; compactness: 1. The value of “cell nucleus” was used for the detection of BV fluorescence.
The compound library was screened at concentrations of 10 μM and 1 μM. […] 200 BV (+) d4 PGCLCs induced from BDF1-2 ESC were seeded in the wells of a 96-well plate, and BV fluorescence was measured on the Cellavista cell analyzer on day 1 of culture (c1), c3, c5 and c7. The value of “cell nucleus” was used for the detection of BV fluorescence. […] For each compound, the fold difference in BV fluorescence between c1 and c7 was calculated for each compound and compounds with a fold difference value exceeding 3SD of the mean of the negative control were identified as those that potentiate PGCLC proliferation.

[4] = tested on: BMP signaling pathway; experiment: BMP signaling in PGCLC: pSMAD1/5/8 (Western blot) and Id1/Id2 expression; type: cell-based, mouse; conditions: PGCLC stimulated by RA and BMP2
Description: For Western blot analysis, 5×10^4 cells were lysed in SDS sample buffer [62.5 mM Tris-HCl (pH 6.8), 2% SDS, 10% glycerol, 0.025% bromophenol blue and 0.14 M-mercaptoethanol] at 90° C. for 5 min. For detection of phosphorylated (p)SMAD1/5/8, the cells were treated with PhosSTOP (Roche) and complete protease inhibitor cocktail (Roche) before lysis. The extracted protein was separated by SuperSep Ace 10-20% gel (Wako), blotted on iBlot2 PVDF transfer membrane (Thermo Fisher) by iBlot2 dry blotting system (Thermo Fisher), and incubated with the primary antibody: rabbit anti-STRA8 IgG (ab49405; Abeam), mouse anti-α tubulin (T9026; Sigma-Aldrich), rabbit anti-pSMAD1/5/8 IgG (#9511; CST), or rabbit anti-SMAD1 IgG (#97435 CST). Primary antibodies were detected with goat anti-rabbit IgG or sheep anti-mouse IgG conjugated to HRP (A0545, M8642; Sigma-Aldrich), followed by Chemi-Lumi One Super (Nacalai). Chemiluminescence image acquisition and analysis was performed using the Fusion Solo system and Fusion-Capt software (M & S Instruments).
(§2) qPCR was performed using CFX384 (Bio-Rad) and Power SYBR Green (ABI, Foster City, Calif.) according to the manufacturer's instructions. Template cDNA was prepared as described in the “Transcriptome analysis” section and the primers used are listed in Primers.

[5] = tested on: female germ cell fate in embryos; experiment: Administration of LDN193189 to pregnant females, germ cell fate at E14.5; type: in vivo, mouse
Description: To administer LDN-193189 to pregnant females (ICR), LDN-193189 (sm10559; Sigma-Aldrich) is dissolved in sterile water, and 2.5 mg LDN-193189 was injected intraperitoneally every 12 hours from E11 to E14 per kg body weight.
as §2

[6] = tested on: d4 PGCLC; experiment: Measurement of intracellular cAMP concentration (cAMPGlo Max assay); type: cell-based, mouse; conditions: pretreated 30 min at room temperature
Description: The intracellular cAMP concentration was measured using cAMPGlo Max assay kit (Promega) according to the manufacturer's instructions. A standard curve using purified cAMP was prepared by calculating the Δrelative light unit (ΔRLU) (RLU [0 nM]-RLU [X nM]). For each sample, 1×10^4 d4 PGCLC was pretreated with forskolin and/or rolipram for 30 min at room temperature and the ΔRLU (RLU [untreated sample-RLU [treated sample]) was calculated. An increase in the intracellular cAMP level due to chemical treatments was inferred from the cAMP standard curve. Three biological replicates were analyzed for each sample.

[7] = tested on: d4 PGCLC; experiment: Expansion culture of d4 PGCLC on m220-5 feeder (cell number fold increase); type: cell-based, mouse; conditions: 10 μM alone; BVSC BDF1-2; SCF, m220 feeder
Description: Since the m220-5 feeder treated with MMC was vulnerable to forskolin and rolipram, m220-5 cells were subcultured 3 times with both forskolin and rolipram each at 10 μM and adapted to these compounds before MMC treatment (1-2 μg/ml for 2 hr). d4 PGCLC or E9.5 PGC(BDF1×Stella-EGFP) was selected by FACS, and the cells were seeded on m220-5 cells in GMEM medium containing 10% KSR, 0.1 mM NEAA, 1 mM sodium pyruvate, 0.1 mM 2-mercaptoethanol, 100 U/ml penicillin, 0.1 mg/ml streptomycin, 2 mM L-glutamine, 2.5% FCS, 100 ng/ml SCF, 10 μM forskolin, and 10 μM rolipram. Half of the culture medium was changed every 2 days.
Expansion culture of PGC/PGCLC to investigate the combined effect of cyclosporin A (CsA) was performed as in Example [I], except that 5 μM CsA was added to the medium in addition to 10 μM forskolin and 10 μM loripram (FR10).

[8] = tested on: PGCLC induced from BVSCDT ESC(XY); experiment: Screening for factors inducing female germ cell fate: DT and BV expression by FACS at c7; type: cell-based, mouse; conditions: added from c3, read at c7; RA 100 nM, cytokines 500 ng/ml; BMPs in combination with RA
Description: as §1
The preparation of d4/c0 PGCLC for FACS is described in “ESC culture/induction and PGCLC induction/culture”. To isolate germ cells in vivo, fetal gonads of BVSC, VR or SG mice were cut and processed for FACS according to the procedure described for d4/c0 PGCLC. Culture PGCLC was also prepared by the same method except that, after dissociation, the cells were washed with 0.1% BSA-DMEM containing 100 μg/ml DNase (Sigma-Aldrich), lysed DNA from dead cells was digested to prevent the formation of cell/debris clumps. Fluorescent activity of BV/SG, SC, or DT/VR was detected with FITC, Horizon V500 or PE-Texas Red channels, respectively. FACS data was analyzed using FlowJo or FACS Diva software package.
In the signal inhibitory experiment, LDN193189 (#04-0074; Stemgent) and BMS493 (B6688; Sigma-Aldrich) dissolved in DMSO were used as ALK2/3 inhibitor and RAR inhibitor, respectively.

CC1(C)CC=C(C#Cc2ccccc2)c2cc(/C=C/c3ccc(C(=O)O)cc3)ccc21 [BMS493]
induction of VR/DDX4 and SCP3 (+) cells (meiotic entry) [1]: abolished upregulation of VR/DDX4 as well as induction of SCP3

C=CC[C@@H]1/C=C(\C)C[C@H](C)C[C@H](OC)[C@H]2O[C@@](O)(C(=O)C(=O)N3CCCC[C@H]3C(=O)O[C@H](/C(C)=C/[C@@H]3CC[C@@H](O)[C@H](OC)C3)[C@H](C)[C@@H](O)CC1=O)[C@H](C)C[C@@H]2OC [FK506, tacrolimus]
proliferative effect on PGCLCs [2]: did not have a proliferative effect

COc1cccc(Nc2c(C(N)=O)cnc3c(C)cc(S(=O)(=O)c4cccc(C(=O)N(C)C)c4)cc23)c1 [GSK256066]
colony formation of BV(+) cells [3]: formation of plural colonies with unique flat morphology

c1ccc2c(-c3cnn4cc(-c5ccc(N6CCNCC6)cc5)cnc34)ccnc2c1 [LDN193189]
pSMAD1/5/8 and Id1, Id2 expression [4]: blocked such effects | induction of VR/DDX4 and SCP3 (+) cells (meiotic entry) [1]: blocked RA- and BMP2-induced VR activation and meiotic entry in a dose-dependent manner | progression to female germ cell fate ([5]; every 12 hr from E11.5 to E14.0, read at E14.5): caused a significant impairment of progression to female germ cell fate | expression of key genes of late PGC/female germ cell development (qPCR) ([5]; female VR(+) cells at E14.5): up-regulated key genes in late PGC/female germplasm development | male germ cell development (qPCR) ([5]; male VR(+) cells at E14.5): unaffected

C=C[C@@]1(C)CC(=O)[C@]2(O)[C@@]3(C)[C@@H](O)CCC(C)(C)[C@@H]3[C@H](O)[C@H](OC(C)=O)[C@@]2(C)O1 [forskolin]
cAMP concentration in PGCLC [6]: about 4 nM/1×10^4 d4 PGCLC

COc1ccc(C2CNC(=O)C2)cc1OC1CCCC1 (centres unmarked) [rolipram]
effect on proliferation of d4 PGCLC (compound alone) [7]: relatively mild | cAMP concentration in PGCLC [6]: about 4 nM/1×10^4 d4 PGCLC

B1: BMP7: bone morphogenetic protein 7 cytokine (R&D Systems) (protein, UniProt P18075 293-431, looked up)
Bone morphogenetic protein 7: STGSKQRSQNRSKTPKNQEALRMANVAENSSSDQRQACKKHELYVSFRDLGWQDWIIAPEGYAAYYCEGECAFPLNSYMNATNHAIVQTLVHFINPETVPKPCCAPTQLNAISVLYFDDSSNVILKKYRNMVVRACGCH
induction of VR/DDX4 and SCP3 (+) cells (meiotic entry) [1]: able to induce VR/DDX4 and SCP3(+) cells | DT and BV expression in BV (+) cells [8]: strongly activated DT and simultaneously down-regulated BV

B2: BMP4: bone morphogenetic protein 4 cytokine (R&D Systems) (protein, UniProt P12644 293-408, looked up)
Bone morphogenetic protein 4: SPKHHSQRARKKNKNCRRHSLYVDFSDVGWNDWIVAPPGYQAFYCHGDCPFPLADHLNSTNHAIVQTLVNSVNSSIPKACCVPTELSAISMLYLDEYDKVVLKNYQEMVVEGCGCR
induction of VR/DDX4 and SCP3 (+) cells (meiotic entry) [1]: able to induce VR/DDX4 and SCP3(+) cells | DT and BV expression in BV (+) cells [8]: strongly activated DT and simultaneously down-regulated BV

B3: BMP5: bone morphogenetic protein 5 cytokine (R&D Systems) (protein, UniProt P22003 317-454, looked up)
Bone morphogenetic protein 5: AANKRKNQNRNKSSSHQDSSRMSSVGDYNTSEQKQACKKHELYVSFRDLGWQDWIIAPEGYAAFYCDGECSFPLNAHMNATNHAIVQTLVHLMFPDHVPKPCCAPTKLNAISVLYFDDSSNVILKKYRNMVVRSCGCH
induction of VR/DDX4 and SCP3 (+) cells (meiotic entry) [1]: able to induce VR/DDX4 and SCP3(+) cells | DT and BV expression in BV (+) cells [8]: strongly activated DT and simultaneously down-regulated BV

From US20200362303A1, “MAINTENANCE-AND-AMPLIFICATION METHOD AND DIFFERENTIATION INDUCTION METHOD FOR PRIMORDIAL GERM CELLS/PRIMORDIAL GERM CELL-LIKE CELLS” (KYOTO UNIVERSITY, priority 2017, published 2020)
